Patent US12616681B2, “Compositions and methods for treating renal injury” (priority 2019, dated 2026)

Assays:
[1] = tested on: endogenous PGE2 levels in kidney tissue; test: Renal PGE2 levels after intraperitoneal injection in mice (Example 1); type: in vivo
Experimental: […] Protein concentrations of supernatant were determined by BCA assay (ThermoFisher Scientific, Rockford, IL). The PGE2 level was measured using a PGE2 ELISA kit (R&D Systems, Minneapolis, MN) in triplicate. PGE2 levels were expressed as nanograms of PGE2 per milligram of protein. Renal function was assessed by determining the serum levels of blood urea nitrogen (BUN; Abcam), serum creatinine (Agilent 6410 LC-MS/MS, Agilent, Santa Clara, CA), lipocalin-2 (R&D Systems), and kidney injury molecule-1 (KIM-1; R&D Systems) after reperfusion for 24 h. Measurement of serum creatinine was by HPLC. Serum creatinine was assessed using an Agilent 6410 LC-MS/MS system coupled with an Agilent 1200 series HPLC system (Agilent). The sample preparation for serum creatinine was that 50 μL of serum samples were mixed with 100 μL of acetonitrile that contained creatinine-d3 as an internal standard (5 μg/mL). The mixture was centrifuged at 13,000 rpm for 10 min after vigorous vortex, and 1 μL of supernatant was then injected into the LC-MS/MS system. The chromatography separation was performed on a Hypersil GOLD C18 column (150×2.1 mm, 3 m, Thermo Scientific) using a mobile phase of 0.1% formic acid solution and acetonitrile [70:30 (vol/vol)]. The flow rate was 0.2 mL/min. […] The multiple-reaction monitoring mode using specific precursor/production transition was used for quantification. […]

[2] = tested on: mice with ischemic AKI (bilateral renal IRI); test: Renal IRI model: necrotic and apoptotic cell death, gross pathology; type: in vivo, C57/BL6 mice; conditions: 24 h after renal IRI; 5 mg/kg ip three times
From the text: To evaluate necrosis, 5-μm-thick paraffin sections were stained with hematoxylin and eosin. Tubular injury of individual slides was scored semi-quantitatively according to a scoring system by a pathologist in a blinded manner. The scoring system was as follows: 0, no damage; 1, patchy isolated unicellular necrosis; 2, tubular necrosis <25%; 3, tubular necrosis 25-50%; and 4, tubular necrosis >50%. To analyze the frequency of apo ptosis, 5-μm-thick paraffin sections were subjected to a TUNEL assay (Millipore, Temecula, CA) according to the manufacturer's protocol. TUNEL-positive cells were counted in at least five separate fields (64 magnification) in the outer medulla, and the apoptosis index (in %, number of apoptosis cells/total number of cells) was calculated using GENASIS software.

[3] = tested on: mice with ischemic AKI (bilateral renal IRI); test: Renal IRI model: renal vasodilation and renal Doppler flux (RBF); type: in vivo, C57/BL6 mice
Experimental: The inner arteriolar area of the outer medulla was determined using α-smooth muscle actin (α-SMA)-stained sections. Kidneys were removed without perfusion under inhalational isoflurane anesthesia, divided into three pieces horizontally, immediately fixed in 10% formalin, and then embedded in paraffin. The inner area of α-SMA-positive vessels in the outer medulla was measured using ImageJ. The results are expressed as average areas of renal arteries in the outer medulla. As a surrogate for RBF, we used noninvasive laser Doppler flowmetry (periflux system 5000, Perimed) to measure flux, placing laser-Doppler probes at a fixed position on the kidney surface and recording renal cortical measurements. […] The relative increase represents the percent increase in RDF from baseline to peak for each test.

[4] = tested on: mice with ischemic AKI (bilateral renal IRI); test: Renal IRI model: renal and serum PGE2 after a single pre-IRI dose; type: in vivo, C57/BL6 mice
Experimental: After reperfusion for 24 h, kidney tissues (˜20 mg) were homogenized in cold PBS containing indomethacin (10 μg/mL) and then centrifuged for 10 min at 12,000 rpm. Protein concentrations of supernatant were determined by BCA assay (ThermoFisher Scientific, Rockford, IL). The PGE2 level was measured using a PGE2 ELISA kit (R&D Systems, Minneapolis, MN) in triplicate. PGE2 levels were expressed as nanograms of PGE2 per milligram of protein. Renal function was assessed by determining the serum levels of blood urea nitrogen (BUN; Abcam), serum creatinine (Agilent 6410 LC-MS/MS, Agilent, Santa Clara, CA), lipocalin-2 (R&D Systems), and kidney injury molecule-1 (KIM-1; R&D Systems) after reperfusion for 24 h. Measurement of serum creatinine was by HPLC. Serum creatinine was assessed using an Agilent 6410 LC-MS/MS system coupled with an Agilent 1200 series HPLC system (Agilent). The sample preparation for serum creatinine was that 50 μL of serum samples were mixed with 100 μL of acetonitrile that contained creatinine-d3 as an internal standard (5 μg/mL). The mixture was centrifuged at 13,000 rpm for 10 min after vigorous vortex, and 1 μL of supernatant was then injected into the LC-MS/MS system. The chromatography separation was performed on a Hypersil GOLD C18 column (150×2.1 mm, 3 m, Thermo Scientific) using a mobile phase of 0.1% formic acid solution and acetonitrile [70:30 (vol/vol)]. The flow rate was 0.2 mL/min. Electrospray ionization was performed in the positive ion mode. The capillary voltage was set at 4,000 V. Nitrogen as the nebulizing gas was set at 15 psi, and the drying gas temperature was set at 300° C., with a flow rate of 6 L/min. The multiple-reaction monitoring mode using specific precursor/production transition was used for quantification. Detection of ions was performed by monitoring m/z 114.1→44.1 for creatinine and 117.1→77.1 for creatinine-d3. The collision energies were 10 and 15 eV for creatinine and creatinine-d3, respectively. The peak areas for all analytes were integrated automatically using Agilent Mass Hunter Analysis software (version B.01.04).

[5] = tested on: contrast-induced acute kidney injury (CIAKI) mice; test: CIAKI mouse model: AMP and adenosine levels in renal tissue; type: in vivo, C57/BL6 mice; conditions: CIAKI mice, CM + drug, 48 h after CM
Experimental: 48 h after CM administration, serum and kidney tissues were harvested. The adenosine levels in the serum and kidney tissues were measured using high-performance liquid chromatography.

CCCC[S+]([O-])c1sc2nc(-c3cccs3)cc(-c3ccccc3)c2c1N (centres unmarked) [SW033291]
endogenous renal PGE2 (peak) ([1]; 1 h after intraperitoneal 5 mg/kg): tripling
renal PGE2 ([1]; 3 h after intraperitoneal injection of 2.5 or 5 mg/kg): dose-dependent increase
count of TUNEL-positive apoptotic cells [2]: reducing
histological renal injury score [2]: reducing
tissue congestion in the outer medulla (gross pathology) [2]: ameliorated
RDF-inferred RBF ([3]; 24 h following IRI): completely preserved
renal arteriolar area in the outer medulla ([3]; 24 h post-IRI, vs post-IRI vehicle and sham mice): significantly increased
protection from reduction of RDF-inferred RBF ([3]; single dose 1 h before IRI (Pre) vs Pre+Post): somewhat less protection
RDF-inferred RBF ([3]; within 1 h after the first injection, just before AKI): increased inferred RBF above baseline
renal PGE2 levels ([4]; 24 h, single pretreatment dose): significantly decreased
serum PGE2 levels ([4]; 24 h, single pretreatment dose): significantly decreased
post-IRI peaks of renal PGE2 (immediate and 14 h) ([4]; single pre-IRI dose): substantially block
AMP in renal tissue [5]: 15.60 ± 1.26 ng/mL
adenosine in renal tissue [5]: 2.65 ± 0.15 ng/mL
